In patent US6193967A, “Bispecific reagents for redirected targeting of human lipoproteins” (priority 1997, dated 2001):

Tested on: monocytes
Experiment: Uptake of bispecific LDL*-IC by monocytes (flow cytometry of cell-associated fluorescence)
Format: cell-based, human
Details: monocytes at 37° C., bispecific LDL*-IC (anti-FcγRII×anti-LDL plus BODIPY-LDL); antioxidant concentration not given
Description: All experiments were done under sterile conditions. For each experiment, bispecific LDL immune complexes (bispecific LDL*-IC) were freshly prepared by combining 4 μg/ml of LDL* with heteroantibodies in eppendorf tubes in monocyte culture medium (without serum or unlabeled LDL unless otherwise indicated), and incubating for one hour at room temperature, prior to adding cells in RPMI 1640 plus 10% FCS. That concentration of LDL* was chosen because it gave a satisfactory signal to noise ratio. In all experiments, a control consisting of LDL* alone was set up by substituting medium for heteroantibody. The final volume of bispecific complexes prior to addition of cells was […]; […] of cells at 1×10^7 /ml were added for a final volume of […]. The tubes were then mixed by gentle pipetting, and incubated at 4° C. or 37° C. as indicated. Final mAb or heteroantibody concentrations are shown in each figure; the final concentration of LDL* in all preparations was 1.33 μg/ml unless otherwise indicated. […]
In all experiments, cells were removed after various times of incubation and washed twice with one ml of PBS at room temperature. […] For cytofluorogaphic analysis, samples were analyzed for green fluorescence on a FACScan (Becton-Dickinson). The excitation wavelength was 488 nm and emission at 515 nm was analyzed. […]

## Cc1cc(C(C)(C)C)c(O)c(C(C)(C)C)c1 [butylated hydroxytoluene]
  effect on the response to bispecific LDL*-IC (uptake by monocytes): had no effect
